Test results: patent publication US6894061B2, “Substituted dihydrophenanthridinesulfonamides” (Wyeth, priority 2002, dated 2005)
Where two headings read alike, the source gives them in different places.

Legend:
creatine kinase = assay: Creatine kinase (CK) test procedure in Ad5-wt-ERα infected HAECT-1 cells; format: cell-based, human; details: @10 μM, Ad5-wt-ERα infected HAECT-1 cells; for Emax at 10 µM: Homo sapiens, HAECT1, read-out: Creatin Kinase Efficacy (%)
Procedure: (§1) After four hours, cells were washed with EBM-BSA and incubated overnight in the same medium. Following overnight incubation, cells were washed with EBM-BSA and infected for 2 hours with 6 mL of a 1:10 dilution of Ad5-3x(NFκB).Luc virus (Adenovirus luciferase expression vector driven by 3 repeats of the MHC NFκb site 5′ to the thymidine kinase promoter) in EBM-BSA. After two hours, cells were washed and incubated at 34° C. for 1 hour. […] Control (no ER infection) cells were processed as above without Ad5-wt-hERα virus infection.
(§2) ERα infected HAECT-1 cells or control cells were thawed, diluted 42× in warm EBM-BSA, plated into 96-well plates at 0.1 mL/well and incubated for 4 hours at 34° C. Test compounds were added to the cells as 2× stocks in EBM-BSA containing 2 ng/mL IL-1β (R&D Systems) and the 96-well plates were returned to the incubator (34° C.). After 15-20 hours, 100 μL aliquots of media were removed from the cells and assayed for IL-6 content using a BioSource human IL-6 ELISA Kit. Cells were subsequently washed with 300 μL of Dulbecco's phosphate buffered saline and lysed in 50 μL of Cell Culture Lysis Reagent (Promega). Luciferase was determined on a Wallac Victor^2 Luminometer (Gaithersburg, Md.) using 10 μL of lysate and mixing with 100 μL of Promega Luciferase Assay reagent. Creatine kinase was determined from the rate of increase in A340 following addition of 100 μL of CK assay reagent (Sigma, cat. No 47-10) to the remainder of the cell lysate.
(§3) For IC50 and EC50 calculations, mean IL-6, luciferase or CK values versus log10 of the compound concentration were fitted to a four parameter logistic equation. The IC50/EC50 value, ‘Hill slope’, upper and lower limits of the curve were iteratively estimated.

ER/NF-κB = ER/NF-κB luciferase reporter in Ad5-wt-ERα infected HAECT-1 cells; format: cell-based, human; details: for Emax: read-out: ER/NFκB Efficacy (%)*; for IC50: read-out: ER/NFκB IC50
Procedure: as §1, §2, §3

Structure (SMILES) | melting point | IC50 (ER/NF-κB; Homo sapiens, HAECT1, IL-1β) | IC50 (ER/NF-κB; IL-1β) | Emax at 10 µM (creatine kinase) | Emax (ER/NF-κB; Homo sapiens, HAECT1, IL-1β) | Creatin Kinase Efficacy (%) (creatine kinase) | ER/NFκB Efficacy (%)* (ER/NF-κB; IL-1β)
CCOC(=O)c1cc(S(=O)(=O)N2c3ccccc3-c3ccccc3C2C)ccc1OCC (stereo not drawn) [Example 25, Ethyl 2-ethoxy-5-[(6-methylphenanthridin-5(6H)-yl)sulfonyl]benzoate] | 113 to 115 °C |  |  |  |  |  | 
CC1c2ccccc2-c2ccccc2N1S(=O)(=O)c1ccc(O)c(C(=O)O)c1 (stereo not drawn) [Example 24, 2-Hydroxy-5-[(6-methylphenanthridin-5(6H)-yl)sulfonyl]benzoic acid] | 225 to 230 °C |  |  |  |  |  | 
CCC1c2ccccc2-c2cc(Br)ccc2N1S(=O)(=O)c1ccc(O)cc1 (stereo not drawn) [Example 19, 4-[(2-Bromo-6-ethylphenanthridin-5(6H)-yl)sulfonyl]phenol] |  | 186 nM |  | < 35% | 80% |  | 
CC1c2cc(Cl)ccc2-c2ccccc2N1S(=O)(=O)c1ccc(O)cc1 (stereo not drawn) [Example 61, 4-[(8-Chloro-6-methylphenanthridin-5(6H)-yl)sulfonyl]phenol] | 176 to 178 °C |  |  |  |  |  | 
CCC1c2ccccc2-c2cc(-c3cccc(Cl)c3)ccc2N1S(=O)(=O)c1ccc(O)cc1 (stereo not drawn) [Example 67, 4-{[2-(3-Chlorophenyl)-6-ethylphenanthridin-5(6H)-yl]sulfonyl}phenol] |  | 245 nM |  | < 35% | 79% |  | 
CCC1c2ccccc2-c2cc(-c3ccccc3C)ccc2N1S(=O)(=O)c1ccc(O)cc1 (stereo not drawn) [Example 70, 4-{[6-Ethyl-2-(2-mthylphnyl)phenanthridin-5(6H)-yl]sulfonyl}phenol] |  |  | 463 nM |  |  | <35% @10 μM | 90%

Second part, led by results:

melting point | IC50 (ER/NF-κB; Homo sapiens, HAECT1, IL-1β) | IC50 (ER/NF-κB; IL-1β) | Structure (SMILES) | Emax at 10 µM (creatine kinase) | Emax (ER/NF-κB; Homo sapiens, HAECT1, IL-1β) | Creatin Kinase Efficacy (%) (creatine kinase) | ER/NFκB Efficacy (%)* (ER/NF-κB; IL-1β)
 | 434 nM |  | CCC1c2ccccc2-c2cc(-c3ccccc3Cl)ccc2N1S(=O)(=O)c1ccc(O)cc1 (stereo not drawn) [Example 74, 4-{[2-(2-Chlorophenyl)-6-ethylphenanthridin-5(6H)-yl]sulfonyl}phenol] | < 35% | 96% |  | 
 |  | 1180 nM | CCC1c2ccccc2-c2cc(-c3ccc(C(C)=O)s3)ccc2N1S(=O)(=O)c1ccc(O)cc1 (stereo not drawn) [Example 76, 1-(5-{6-Ethyl-5-[(4-hydroxyphnyl)sulfonyl]-5,6-dihydrophnanthridin-2-yl}thin-2-yl)ethanone] |  |  | <35% @10 μM | 67%
 | 771 nM |  | CCC1c2ccccc2-c2cc(-c3ccccc3O)ccc2N1S(=O)(=O)c1ccc(O)c(C)c1 (stereo not drawn) [Example 78, 4-{[6-Ethyl-2-(2-hydroxyphenyl)phenanthridin-5(6H)-yl]sulfonyl}-2-methylphenol] | < 35% | 79% |  | 
 | 52 nM |  | CCC1c2ccccc2-c2cc(-c3ccc(O)cc3)ccc2N1S(=O)(=O)c1ccc(O)cc1 (stereo not drawn) [Example 73, 4-{[6-Ethyl-2-(4-hydroxyphenyl)phenanthridin-5(6H)-yl]sulfonyl}phenol] | < 35% | 56% |  | 
 | 2550 nM |  | CCC1c2ccccc2-c2cc(-c3cc4ccccc4s3)ccc2N1S(=O)(=O)c1ccc(O)c(C)c1 (stereo not drawn) [Example 90, 4-{[2-(1-Benzothien-2-yl)-6-ethylphenanthridin-5(6H)-yl]sulfonyl}-2-methylphenol] | < 35% | 108% |  | 
 |  | 382 nM | CCC1c2ccccc2-c2cc(-c3ccc(O)cc3)ccc2N1S(=O)(=O)c1ccc(O)c(C)c1 (stereo not drawn) [Example 94, 4-{[6-Ethyl-2-(4-hydroxyphnyl)phenanthridin-5(6H)-yl]sulfnyl}-2-methylph nl] |  |  | <35% @10 μM | 105%
 | 3930 nM |  | CCc1ccc(-c2ccc3c(c2)-c2ccccc2C(CC)N3S(=O)(=O)c2ccc(O)cc2)cc1 (stereo not drawn) [Example 75, 4-{[6-Ethyl-2-(4-ethylphenyl)phenanthridin-5(6H)-yl]sulfonyl}phenol] | < 35% | 116% |  | 
 | 678 nM |  | CCC1c2ccccc2-c2cc(-c3ccccc3Cl)ccc2N1S(=O)(=O)c1ccc(O)c(C)c1 (stereo not drawn) [Example 95, 4-{[2-(2-Chlorophenyl)-6-ethylphenanthridin-5(6H)-yl]sulfonyl}-2-methylphenol] | < 35% | 89% |  | 
